Measurements reported in US20230017045A1, “PYRIDINE AND PYRIMIDINE CARBOXYLATE HERBICIDES AND METHODS OF USE THEREOF” (Dow AgroSciences LLC, priority 2017, published 2023).

These molecules were tested on test plant species (assay: Post-emergent herbicidal activity test (greenhouse, foliar spray, visual growth reduction)). Conditions: post-emergence, 336 h, ALOMY: blackgrass (Alopecurus myosuroides), 140 g ai/ha, 14 days after application, read-out: Visual Growth Reduction (%) 14 Days After Application, ALOMY.
Assay type: in vivo
Method in brief: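 Seedlings were raised 7-21 d in a greenhouse under a 15 h photoperiod until the first or second true leaf. Each compound, dissolved in acetone:DMSO 97:3 and diluted into a surfactant-containing spray mixture, was then applied at 187 L/ha. Plants were subirrigated, and growth reduction was scored visually at 14 d.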
`COCC(F)(F)c1ccc(-c2ccc(Cl)c(C(=O)O)n2)c(Cl)c1` [F179, 3-chloro-6-(2-chloro-4-(1,1-difluoro-2-methoxyethyl)phenyl)picolinic acid] was tested, and the pest or weed control at 140 g/ha was 0 to 29%.

Same assay, conditions: post-emergence, 336 h, AMARE: redroot pigweed (Amaranthus retroflexus), 140 g ai/ha, 14 days after application, read-out: Visual Growth Reduction (%) 14 Days After Application, AMARE
Molecule `COCC(F)(F)c1ccc(-c2ccc(Cl)c(C(=O)O)n2)c(Cl)c1` [F179, 3-chloro-6-(2-chloro-4-(1,1-difluoro-2-methoxyethyl)phenyl)picolinic acid] has a pest or weed control at 140 g/ha of 60 to 74%.

Same assay, conditions: post-emergence, 336 h, AVEFA: wild oat (Avena fatua), 140 g ai/ha, 14 days after application, read-out: Visual Growth Reduction (%) 14 Days After Application, AVEFA
In the case of `COCC(F)(F)c1ccc(-c2ccc(Cl)c(C(=O)O)n2)c(Cl)c1` [F179, 3-chloro-6-(2-chloro-4-(1,1-difluoro-2-methoxyethyl)phenyl)picolinic acid], the pest or weed control at 140 g/ha is reported as 0 to 29%.

Same assay, conditions: post-emergence, 336 h, CHEAL: lambsquarters (Chenopodium album), 140 g ai/ha, 14 days after application, read-out: Visual Growth Reduction (%) 14 Days After Application, CHEAL
In the case of `COCC(F)(F)c1ccc(-c2ccc(Cl)c(C(=O)O)n2)c(Cl)c1` [F179, 3-chloro-6-(2-chloro-4-(1,1-difluoro-2-methoxyethyl)phenyl)picolinic acid], the pest or weed control at 140 g/ha is reported as 0 to 29%.

Same assay, conditions: post-emergence, 336 h, CIRAR: canada thistle (Cirsium arvense), 140 g ai/ha, 14 days after application, read-out: Visual Growth Reduction (%) 14 Days After Application, CIRAR
`COCC(F)(F)c1ccc(-c2ccc(Cl)c(C(=O)O)n2)c(Cl)c1` [F179, 3-chloro-6-(2-chloro-4-(1,1-difluoro-2-methoxyethyl)phenyl)picolinic acid] showed a pest or weed control at 140 g/ha of 0 to 29%.

Same assay, conditions: post-emergence, 336 h, CYPES: yellow nutsedge (Cyperus esculentus), 140 g ai/ha, 14 days after application, read-out: Visual Growth Reduction (%) 14 Days After Application, CYPES
`COCC(F)(F)c1ccc(-c2ccc(Cl)c(C(=O)O)n2)c(Cl)c1` [F179, 3-chloro-6-(2-chloro-4-(1,1-difluoro-2-methoxyethyl)phenyl)picolinic acid] gave a pest or weed control at 140 g/ha of 0 to 29%.

Same assay, conditions: post-emergence, 336 h, DIGSA: crabgrass (Digitaria sanguinalis), 140 g ai/ha, 14 days after application, read-out: Visual Growth Reduction (%) 14 Days After Application, DIGSA
In the case of `COCC(F)(F)c1ccc(-c2ccc(Cl)c(C(=O)O)n2)c(Cl)c1` [F179, 3-chloro-6-(2-chloro-4-(1,1-difluoro-2-methoxyethyl)phenyl)picolinic acid], the pest or weed control at 140 g/ha is reported as 0 to 29%.

Same assay, conditions: post-emergence, 336 h, ECHCG: barnyardgrass (Echinochloa crus-galli), 140 g ai/ha, 14 days after application, read-out: Visual Growth Reduction (%) 14 Days After Application, ECHCG
Work on `COCC(F)(F)c1ccc(-c2ccc(Cl)c(C(=O)O)n2)c(Cl)c1` [F179, 3-chloro-6-(2-chloro-4-(1,1-difluoro-2-methoxyethyl)phenyl)picolinic acid] yielded a pest or weed control at 140 g/ha of 0 to 29%.

Same assay, conditions: post-emergence, 336 h, IPOHE: ivy-leaf morning glory (Ipomoea hederacea), 140 g ai/ha, 14 days after application, read-out: Visual Growth Reduction (%) 14 Days After Application, IPOHE
`COCC(F)(F)c1ccc(-c2ccc(Cl)c(C(=O)O)n2)c(Cl)c1` [F179, 3-chloro-6-(2-chloro-4-(1,1-difluoro-2-methoxyethyl)phenyl)picolinic acid] showed a pest or weed control at 140 g/ha of 95 to 100%.

Same assay, conditions: post-emergence, 336 h, KCHSC: kochia (Bassia scoparia), 140 g ai/ha, 14 days after application, read-out: Visual Growth Reduction (%) 14 Days After Application, KCHSC
Work on `COCC(F)(F)c1ccc(-c2ccc(Cl)c(C(=O)O)n2)c(Cl)c1` [F179, 3-chloro-6-(2-chloro-4-(1,1-difluoro-2-methoxyethyl)phenyl)picolinic acid] yielded a pest or weed control at 140 g/ha of 60 to 74%.

Same assay, conditions: post-emergence, 336 h, ORYSA: rice (Oryza sativa), 140 g ai/ha, 14 days after application, read-out: Visual Growth Reduction (%) 14 Days After Application, ORYSA
With `COCC(F)(F)c1ccc(-c2ccc(Cl)c(C(=O)O)n2)c(Cl)c1` [F179, 3-chloro-6-(2-chloro-4-(1,1-difluoro-2-methoxyethyl)phenyl)picolinic acid] the pest or weed control at 140 g/ha was 0 to 29%.

Same assay, conditions: post-emergence, 336 h, SETFA: giant foxtail (Setaria faberi), 140 g ai/ha, 14 days after application, read-out: Visual Growth Reduction (%) 14 Days After Application, SETFA
`COCC(F)(F)c1ccc(-c2ccc(Cl)c(C(=O)O)n2)c(Cl)c1` [F179, 3-chloro-6-(2-chloro-4-(1,1-difluoro-2-methoxyethyl)phenyl)picolinic acid] showed a pest or weed control at 140 g/ha of 0 to 29%.

Same assay, conditions: post-emergence, 336 h, SORVU: grain sorghum (Sorghum vulgare), 140 g ai/ha, 14 days after application, read-out: Visual Growth Reduction (%) 14 Days After Application, SORVU
For `COCC(F)(F)c1ccc(-c2ccc(Cl)c(C(=O)O)n2)c(Cl)c1` [F179, 3-chloro-6-(2-chloro-4-(1,1-difluoro-2-methoxyethyl)phenyl)picolinic acid], the pest or weed control at 140 g/ha was 0 to 29%.

Same assay, conditions: post-emergence, 336 h, STEME: common chickweed (Stellaria media), 140 g ai/ha, 14 days after application, read-out: Visual Growth Reduction (%) 14 Days After Application, STEME
`COCC(F)(F)c1ccc(-c2ccc(Cl)c(C(=O)O)n2)c(Cl)c1` [F179, 3-chloro-6-(2-chloro-4-(1,1-difluoro-2-methoxyethyl)phenyl)picolinic acid] showed a pest or weed control at 140 g/ha of 0 to 29%.

Same assay, conditions: post-emergence, 336 h, TRZAS: wheat, spring (Triticum aestivum), 140 g ai/ha, 14 days after application, read-out: Visual Growth Reduction (%) 14 Days After Application, TRZAS
With `COCC(F)(F)c1ccc(-c2ccc(Cl)c(C(=O)O)n2)c(Cl)c1` [F179, 3-chloro-6-(2-chloro-4-(1,1-difluoro-2-methoxyethyl)phenyl)picolinic acid] the pest or weed control at 140 g/ha was 0 to 29%.
